In US7524861B2, “Process for the preparation of a hydrate of an anthranilic acid derivative” (priority 2002, dated 2009):
Marks after values point to notes of the source that are not given here.

Key:
[1] = Hygroscopicity study (weight change on storage at 33-95% RH, KF water content); assay type: physicochemical; conditions: for KF moisture result: hygroscopicity sample
Method: (§1) The hexahydrate produced in Example 1 was analysed as follows. Four desiccator cabinets were prepared to contain open dishes of the following saturated salt solutions, to achieve the following approximate relative humidities (RH).
(§2) Dehydration of samples was carried out by storing them over silica gel or over P2O5 at reduced pressure (65 mm Hg). All studies were performed at ambient laboratory temperature (15-22° C.).
Pre-equilibrated weighing bottles and lids (stored at 33% RH for a minimum of 24 hours) were weighed on a tared 5-figure analytical balance, and the weight recorded. To these the hydrate was added (approx 2 g), the weight recorded and the difference (the accurate weight of the drug substance) calculated. The weighing bottles, lids and contents were then transferred to the 33% RH cabinet, with the lids removed and placed to the side.
At appropriate times, the lids were replaced and the weight measured. After weighing, the samples were gently agitated and placed back in the 33% RH cabinet, again with the lid removed and placed to one side. This process continued until all % weight changes for all samples were seen to have reached stable end-points. […]. When stable end-points were observed, the samples were stepped up to the next % RH cabinet by transferring the drug to pre-equilibrated weighing bottles, recording their weight as before. Samples were stored progressively at 33% RH, 60% RH, 75% RH and 95% RH.
(§3) Water contents were measured by coulometric KF (Karl Fischer) titration.

[2] = Dehydration/re-hydration study (weight change over desiccants, then 33-95% RH, KF water content); assay type: physicochemical
Method: as §1, §2
During this study, samples were dispensed to pre-equilibrated weighing bottles as in the hygroscopicity study, and were then stored over silica gel without reduced pressure, then over […] under reduced pressure (65 mm Hg) to dehydrate the hydrate. Once a stable weight was achieved over P2O5, samples were re-hydrated by storing them at 33% RH to 95% RH, in parallel with the hygroscopicity study as described above.
as §3

- Cumulative % change Hygroscopicity ([1]; 33% RH, tabulated time 1147.25 h (actual: minus 1144 h)): −0.17* %
- Cumulative % change Hygroscopicity ([1]; 33% RH, tabulated time 1150.75 h (actual: minus 1144 h)): −0.22%
- Cumulative % change Hygroscopicity ([1]; 33% RH, tabulated time 1168.00 h (actual: minus 1144 h)): −0.47%
- Cumulative % change Hygroscopicity ([1]; 33% RH, tabulated time 1240.75 h (actual: minus 1144 h)): −0.37%
- Cumulative % change Hygroscopicity ([1]; 33% RH, tabulated time 1268.50 h (actual: minus 1144 h)): −0.42%
- Cumulative % change Hygroscopicity ([1]; 33% RH, tabulated time 1312.50 h (actual: minus 1144 h)): −0.49%
- Cumulative % change Hygroscopicity ([1]; 33% RH, tabulated time 1431.25 h (actual: minus 1144 h)): −0.63%
- Cumulative % change Hygroscopicity ([1]; 33% RH, tabulated time 1502.25 h (actual: minus 1144 h)): −0.51%
- Cumulative % change Hygroscopicity ([1]; 33% RH, tabulated time 1672.50 h (actual: minus 1144 h)): −0.70%
- Cumulative % change Hygroscopicity ([1]; 33% RH, tabulated time 1741.50 h (actual: minus 1144 h)): −0.76%
- hygroscopicity on storage at progressively higher RH values ([1]; 33% to 95% RH, ambient temperature): no evidence of hygroscopicity
- Cumulative % change Hygroscopicity ([1]; 60% RH, tabulated time 1744.50 h (actual: minus 1144 h)): 0.12%
- Cumulative % change Hygroscopicity ([1]; 60% RH, tabulated time 1746.50 h (actual: minus 1144 h)): 0.13%
- Cumulative % change Hygroscopicity ([1]; 60% RH, tabulated time 1762.50 h (actual: minus 1144 h)): 0.08%
- Cumulative % change Hygroscopicity ([1]; 60% RH, tabulated time 1835.75 h (actual: minus 1144 h)): 0.27%
- Cumulative % change Hygroscopicity ([1]; 60% RH, tabulated time 1932.25 h (actual: minus 1144 h)): 0.37%
- Cumulative % change Hygroscopicity ([1]; 60% RH, tabulated time 2101.50 h (actual: minus 1144 h)): 0.56%
- Cumulative % change Hygroscopicity ([1]; 60% RH, tabulated time 2147.75 h (actual: minus 1144 h)): 0.34%
- Cumulative % change Hygroscopicity ([1]; 60% RH, tabulated time 2273.75 h (actual: minus 1144 h)): 0.34%
- Cumulative % change Hygroscopicity ([1]; 60% RH, tabulated time 2410.25 h (actual: minus 1144 h)): 0.27%
- Cumulative % change Hygroscopicity ([1]; 75% RH, tabulated time 2417.25 h (actual: minus 1144 h)): 0.87%
- Cumulative % change Hygroscopicity ([1]; 75% RH, tabulated time 2434.25 h (actual: minus 1144 h)): 0.88%
- Cumulative % change Hygroscopicity ([1]; 75% RH, tabulated time 2441.25 h (actual: minus 1144 h)): 0.88%
- Cumulative % change Hygroscopicity ([1]; 75% RH, tabulated time 2482.00 h (actual: minus 1144 h)): 0.92%
- Cumulative % change Hygroscopicity ([1]; 75% RH, tabulated time 2577.75 h (actual: minus 1144 h)): 1.00%
- Cumulative % change Hygroscopicity ([1]; 75% RH, tabulated time 2609.75 h (actual: minus 1144 h)): 0.96%
- Cumulative % change Hygroscopicity ([1]; 75% RH, tabulated time 2681.25 h (actual: minus 1144 h)): 1.08%
- Cumulative % change Hygroscopicity ([1]; 75% RH, tabulated time 2770.25 h (actual: minus 1144 h)): 1.01%
- Cumulative % change Hygroscopicity ([1]; 75% RH, tabulated time 2817.75 h (actual: minus 1144 h)): 1.09%
- Cumulative % change Hygroscopicity ([1]; 95% RH, tabulated time 2825.25 h (actual: minus 1144 h)): 1.85%
- Cumulative % change Hygroscopicity ([1]; 95% RH, tabulated time 2841.75 h (actual: minus 1144 h)): 2.23%
- Cumulative % change Hygroscopicity ([1]; 95% RH, tabulated time 2915.75 h (actual: minus 1144 h)): 2.57%
- Cumulative % change Hygroscopicity ([1]; 95% RH, tabulated time 2937.75 h (actual: minus 1144 h)): 2.71%
- Cumulative % change Hygroscopicity ([1]; 95% RH, tabulated time 2991.25 h (actual: minus 1144 h)): 2.82%
- Cumulative % change Hygroscopicity ([1]; 95% RH, tabulated time 3082.25 h (actual: minus 1144 h)): 3.28%
- Cumulative % change Hygroscopicity ([1]; 95% RH, tabulated time 3130.00 h (actual: minus 1144 h)): 3.51%
- Cumulative % change Hygroscopicity ([1]; 95% RH, tabulated time 3182.25 h (actual: minus 1144 h)): 3.39%
- Cumulative % change Hygroscopicity ([1]; 95% RH, tabulated time 3252.25 h (actual: minus 1144 h)): 3.62%
- Cumulative % change Hygroscopicity ([1]; 95% RH, tabulated time 3350.25 h (actual: minus 1144 h)): 3.65%
- Cumulative % change Hygroscopicity ([1]; 95% RH, tabulated time 3422.25 h (actual: minus 1144 h)): 3.64%
- Cumulative % change Hygroscopicity ([1]; 95% RH, tabulated time 3636.25 h (actual: minus 1144 h)): 4.12%
- Cumulative % change Hygroscopicity ([1]; 95% RH, tabulated time 4332.75 h (actual: minus 1144 h)): 4.45%
- weight increase between storage at 33% RH and end of storage at 75% RH ([1]; both re-hydrated and untreated samples): less than 2 % (absolute)
- KF moisture result ([1]; 95% RH, tabulated time 4332.75 h (end)): (15.35) % w/w
- KF moisture result ([1]; printed in first 33% RH row (start of study)): (12.45) % w/w
- Cumulative % change Dehydration/Rehydration ([2]; 60% RH, cumulative time 1744.50 h): 0.19%
- Cumulative % change Dehydration/Rehydration ([2]; 60% RH, cumulative time 1746.50 h): 0.31%
- Cumulative % change Dehydration/Rehydration ([2]; 60% RH, cumulative time 1762.50 h): 0.30%
- Cumulative % change Dehydration/Rehydration ([2]; 60% RH, cumulative time 1835.75 h): 0.54%
- Cumulative % change Dehydration/Rehydration ([2]; 60% RH, cumulative time 1932.25 h): 0.64%
- Cumulative % change Dehydration/Rehydration ([2]; 60% RH, cumulative time 2101.50 h): 0.86%
- Cumulative % change Dehydration/Rehydration ([2]; 60% RH, cumulative time 2147.75 h): 0.62%
- Cumulative % change Dehydration/Rehydration ([2]; 60% RH, cumulative time 2273.75 h): 0.61%
- Cumulative % change Dehydration/Rehydration ([2]; 60% RH, cumulative time 2410.25 h): 0.51%
- Cumulative % change Dehydration/Rehydration ([2]; 75% RH, cumulative time 2417.25 h): 1.18%
- Cumulative % change Dehydration/Rehydration ([2]; 75% RH, cumulative time 2434.25 h): 1.21%
SMILES: COc1cc2c(cc1OC)CN(CCc1ccc(NC(=O)c3cc(OC)c(OC)cc3NC(=O)c3cnc4ccccc4c3)cc1)CC2 [Example 1, Quinoline-3-carboxylic acid (2-{4-[2-(6,7-dimethoxy-3,4-dihydro-1H-isoquinolin-2-yl)-ethyl]-phenylcarbamoyl}-4,5-dimethoxy-phenyl)-amide]
